Data: patent US11078152B2, “Method for resolution of baclofen salts” (Universite de Rouen, priority 2016, dated 2021)

Legend:
[1] = background statement, no test described; cited from earlier work
[2] = Determination of the solubility of the racemic Bahma salt in a given solvent at a given temperature; assay type: physicochemical; details: for Solubility 1M HCl: aqueous 1M HCl solution; for Solubility 2M HCl: aqueous 2M HCl solution; for Solubility: n-propanol/water azeotropic mixture; for Solubility Water: pure water
Experimental: Determination of the Solubility
The solubility of a Bahma salt in a given solvent was calculated, for a given temperature and in a given volume of solvent, via the following formula:
[formula] in which mBahma is the mass of the Bahma salt introduced in grams to reach saturation; ρsolvent is the density of the solvent in g.mL^−1; and Vsolvent is the volume of the solvent in mL.
The solubility of the racemic Bahma salt at various temperatures was determined in the n-propanol/water azeotropic mixture (ρ=0.870 g.mL^−1).
The solubility of the racemic Bahma salt at various temperatures was determined in pure water (ρ=1 g.mL^−1), in aqueous 1M HCl solution (ρ=1.017 g.mL^−1) and in aqueous 2M HCl solution (ρ=1.030 g.mL^−1).

For `NC[C@H](CC(=O)O)c1ccc(Cl)cc1` [R(−) enantiomer, (R)-4-amino-3-(4-chlorophenyl)butanoic acid], the “activity relative to the S(+) enantiomer” value [1] is given as “three times more active than the S(+) enantiomer”.
In the case of `NCC(CC(=O)O)c1ccc(Cl)cc1.O=C(O)C=CC(=O)O` (racemic) [racemic Bahma salt, baclofen hydrogen maleate], the “Solubility 1M HCl” value ([2]; 20° C.) was 4.51%, the “Solubility 1M HCl” value ([2]; 35° C.) was 6.86% and the “Solubility 1M HCl” value ([2]; 50° C.) was 12.54%. For the same compound, the “Solubility 2M HCl” value ([2]; 20° C.) was 6.48%, the “Solubility 2M HCl” value ([2]; 35° C.) was 11.44% and the “Solubility 2M HCl” value ([2]; 50° C.) was 22.24%. It also gave a Solubility ([2]; 20° C.) of 1.49%, a Solubility ([2]; 35° C.) of 2.80% and a Solubility ([2]; 50° C.) of 4.81%. The “Solubility Water” value ([2]; 20° C.) was 0.75%, the “Solubility Water” value ([2]; 35° C.) was 1.00% and the “Solubility Water” value ([2]; 50° C.) was 1.78%.
